Laboratory results reported in PubChem BioAssay (NCI).
Several values for one entry are separate records, joined by “and”; a condition that tells them apart may be missing. Identical values can stand only once.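 Values below derive from 48-hour exposures of cells grown in 96-well plates, with endpoints linearly interpolated between the two concentrations bracketing the appropriate inhibition level. GI50 = concentration required for 50% inhibition of growth. TGI: total growth inhibition.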

What was measured:
Assay in all cases: NCI-60 cell line screen, 48 h
K-562 leukemia = tested on: K-562 leukemia
SNB-19 CNS = tested on: SNB-19 CNS
EKVX NSCLC = tested on: EKVX NSCLC
SF-268 CNS = tested on: SF-268 CNS
UO-31 renal = tested on: UO-31 renal
SW-620 colon = tested on: SW-620 colon
M14 melanoma = tested on: M14 melanoma
NCI-H23 lung = tested on: NCI-H23 lung
MDA-MB-435 = tested on: MDA-MB-435
SK-OV-3 ovarian = tested on: SK-OV-3 ovarian

Row | SMILES | TGI (K-562 leukemia) | TGI (SNB-19 CNS) | TGI (EKVX NSCLC) | TGI (SF-268 CNS) | TGI (UO-31 renal) | TGI (SW-620 colon) | TGI (M14 melanoma) | TGI (NCI-H23 lung) | TGI (MDA-MB-435) | TGI (SK-OV-3 ovarian) | GI50 (SNB-19 CNS) | GI50 (SK-OV-3 ovarian) | GI50 (K-562 leukemia) | GI50 (MDA-MB-435) | GI50 (EKVX NSCLC) | GI50 (SF-268 CNS) | GI50 (UO-31 renal) | GI50 (M14 melanoma)
1 | CN1CCn2c(Br)ccc2C1=O | > 100 µM | > 100 µM | > 100 µM | > 100 µM | > 100 µM | > 100 µM | > 100 µM | > 100 µM |  |  |  |  |  |  |  |  |  | 
2 | Cc1cc2ccccc2c[n+]1CC(O)C[n+]1cc2ccccc2cc1C | > 100 µM | > 100 µM | > 100 µM | > 100 µM | > 100 µM | > 100 µM | > 100 µM | > 100 µM | > 100 µM |  |  |  |  |  |  |  |  | 
3 | COc1ccc(/C=C2\Cc3ccccc3C2=O)cc1OC | > 100 µM | > 100 µM | > 100 µM | > 100 µM | > 100 µM | > 100 µM | > 100 µM | > 100 µM |  | > 100 µM |  |  |  |  |  |  |  | 
4 | COc1cc2cc(C(=O)N3CC(CCl)c4c3cc(N)c3ccccc43)[nH]c2cc1OCCN(C)C (centres undefined) | 1.12 µM |  | 10.7 µM | 0.712 µM | < 0.005 µM |  | 0.00977 µM | 0.00833 µM | < 0.005 µM | 0.881 µM |  |  |  |  |  |  |  | 
5 | O=S1(=O)NNC(=NCc2ccc(Cl)cc2)c2ccccc21 | > 100 µM | > 100 µM | > 100 µM | > 100 µM | > 100 µM | > 100 µM | > 100 µM |  |  |  |  |  |  |  |  |  |  | 
6 | COC(=O)C(/C(=N/NC(=O)c1ccncc1)C(=O)Nc1ccccc1OC)c1nc2ccc(Cl)cc2[nH]c1=O (centres undefined) | > 100 µM |  | > 100 µM | > 100 µM | > 100 µM | > 100 µM | > 100 µM | > 100 µM | > 100 µM | > 100 µM |  |  |  |  |  |  |  | 
7 | CC[C@]12C=CCN3CCC4(c5cc(N=Nc6ccccc6)c(OC)cc5N(C)[C@H]4[C@@](O)(C(=O)OC)[C@@H]1OC(C)=O)[C@@H]32 (some centres undefined) | 64.2 µM | 47.2 µM | 34.2 µM | 33 µM | 29.8 µM | 58.7 µM | 43.6 µM | 30.5 µM | 37.9 µM |  |  |  |  |  |  |  |  | 
8 | CCN(CC)CCO/N=C1\CC[C@H]2[C@@H]3CC=C4C[C@@H](O)CC[C@]4(C)[C@H]3CC[C@]12C | 30.7 µM | 98.5 µM | > 100 µM | > 100 µM | 32.1 µM | 30.4 µM |  | 33.4 µM | 31.9 µM |  |  |  |  |  |  |  |  | 
9 | Nc1ccc2c(c1)C(=O)c1ccccc1-2 | > 100 µM | > 100 µM | > 100 µM | > 100 µM | > 100 µM | > 100 µM | > 100 µM | > 100 µM | > 100 µM |  |  |  |  |  |  |  |  | 
10 | COC(=O)[C@H](C)N1C(=O)N[C@@H](C(C)C)C1=O | > 100 µM | > 100 µM | > 100 µM |  | > 100 µM | > 100 µM | > 100 µM | > 100 µM | > 100 µM | > 100 µM |  |  |  |  |  |  |  | 
11 | CCOc1ccc2[nH]c3c(C)c4cc[n+](C)cc4c(C)c3c2c1 | 24.5 µM and 18.3 µM | 1.26 µM and 3.37 µM | > 100 µM | 0.605 µM and 1.18 µM | > 100 µM | 15.6 µM and > 83.8 µM | 30.5 µM and 58.5 µM | 3.38 µM and 3.31 µM |  | 60.6 µM and 56.3 µM | 0.297 µM and 0.707 µM |  |  |  |  |  |  | 
12 | CC1(O)C=CC2CCC1C2O (centres undefined) | > 100 µM | > 100 µM | > 100 µM | 93.7 µM | > 100 µM |  | > 100 µM | > 100 µM |  | > 100 µM |  |  |  |  |  |  |  | 
13 | CN=C(Nn1cnnc1)OC | > 100 µM | > 100 µM | > 100 µM |  | > 100 µM | > 100 µM | > 100 µM | > 100 µM | > 100 µM | > 100 µM |  |  |  |  |  |  |  | 
14 | O=C1NC(=S)N/C1=C/c1ccccc1O |  | > 100 µM | > 100 µM | > 100 µM | > 100 µM | > 100 µM | > 100 µM | > 100 µM | > 100 µM | > 100 µM |  |  |  |  |  |  |  | 
15 | O=c1[nH]c(=O)n(C2OC(COP(=O)(O)OP(=O)(O)O)C(O)C2O)cc1F (centres undefined) | > 50 µM | > 50 µM | 42.5 µM | > 50 µM | 20.4 µM | > 50 µM | > 50 µM | > 50 µM |  | 47.8 µM |  |  |  |  |  |  |  | 
16 | Cc1cc(S(=O)(=O)Nc2nnc3c(C(F)(F)F)cc(Cl)cn23)c(S)cc1Cl | > 100 µM | > 100 µM | > 100 µM | > 100 µM | > 100 µM | > 100 µM | > 100 µM |  | > 100 µM | > 100 µM |  |  |  |  |  |  |  | 
17 | N#Cc1c(Nc2ccc(F)cc2)[n+]([O-])c2ccc(Cl)cc2[n+]1[O-] | 8.56 µM | > 100 µM |  | 14.2 µM | 42.1 µM | > 100 µM | 44.2 µM | 23.4 µM | > 100 µM | 36.7 µM |  |  |  |  |  |  |  | 
18 | O=C1c2[nH]cc(CN3CCNCC3)c2C(=O)c2c1c(O)c1ccccc1c2O | > 100 µM | 6 µM | 2.49 µM | 66.4 µM | 5.96 µM |  | 3.23 µM |  | 4.59 µM | 27.7 µM | 2.22 µM | 5.76 µM | 3.42 µM | 2.54 µM | 0.769 µM | 22.9 µM | 1.7 µM | 1.53 µM
19 | CCOC(=O)c1nc2c3c(ncn2n1)Oc1c(c(-c2ccccc2)nn1-c1ccccc1)C3c1ccc(Cl)cc1 (centres undefined) | > 100 µM | > 100 µM |  | > 100 µM | > 100 µM | > 100 µM | > 100 µM | > 100 µM | > 100 µM | > 100 µM |  |  |  |  |  |  |  | 
20 | OCC1OC(n2cnc3cccnc32)CC1O (centres undefined) | > 100 µM | > 100 µM | > 100 µM | > 100 µM | > 100 µM | > 100 µM | > 100 µM | > 100 µM | > 100 µM |  |  |  |  |  |  |  |  | 
21 | CCCCC[C@@H]1OCO[C@@]2(C)/C=C(C)/C=C/C(=O)O[C@H]([C@@H](C)[C@@H](O)[C@H](C)[C@@]3(O)C[C@@H](O[C@H]4C[C@@H](O)[C@H](O)[C@@H](C)O4)[C@H](C)[C@@H](C)O3)[C@@H](OC)/C=C/C=C(\C)C[C@@H]1[C@@H]2O (stereo in doubt) | 7.54 µM | 7.78 µM | 3.07 µM | 7.77 µM |  | 6.67 µM | < 0.005 µM | 11.5 µM | 0.541 µM | 5.38 µM |  |  |  |  |  |  |  | 
22 | Cc1cc(Cc2c(F)c(F)c(Cc3cc(C)no3)c(F)c2F)on1 | > 100 µM | > 100 µM | > 100 µM | > 100 µM | > 100 µM |  | > 100 µM | > 100 µM | > 100 µM | > 100 µM |  |  |  |  |  |  |  | 
23 | CC1(C)COC(c2cccc(C3=NC(C)(C)CO3)c2Br)=N1 | > 100 µM | > 100 µM | > 100 µM | > 100 µM | > 100 µM | > 100 µM | > 100 µM | > 100 µM | > 100 µM |  |  |  |  |  |  |  |  | 
